Measurements taken from patent publication US20030186334A1, “KTS-disintegrins” (Temple University - Of the Commonwealth System of Higher …, priority 2001, published 2003).

System: MV3 human melanoma cells
Experiment: MV3 melanoma cell migration through HUVEC layer
Type: cell-based
Settings: 3 hours
Procedure: Cell migration through an endothelial cell layer is an important event in cancer cell metastasis. The effect of obtustatin on melanoma cell migration through an endothelial cell layer in vitro was evaluated as follows. Human umbilical vein endothelial cells (HUVECs) of 3-7 passages were purchased from Cascade Biologics (Portland, Oreg.). The HUVECs were seeded into 8.0 μm pore size FALCON® HTS FluoroBlok™ inserts (Becton Dickinson, Franklin Lakes, N.J.) in serum-containing endothelial cell growth medium. The inserts were placed into the wells of a 24-well plate (Becton-Dickinson), and the HUVECs allowed to grow to confluence on the insert over 72 hours. The interior of the FluoroBlok™ inserts is referred to below as the “upper chamber,” and the interior of the well in which the insert sits is referred to as the “lower chamber.”
Twenty-four hours before the assay, the upper chambers were washed with serum-free medium, and new medium containing TNF-α (3 ng/ml) was added to activate the HUVECs. […] After 3 hours incubation at 37° C. in 5% CO2, the extent of MV3 migration into the bottom chambers was assessed using a bottom-reading Cytofluor 2350 (Millipore Inc., Bedford Mass.). The amount of fluorescence in the lower chambers is directly related to the number of MV3 cells which have migrated through the HUVEC layer from the upper chamber. […]

## Obtustatin (CTTGPCCRQCKLKPAGTTCWKTSLTSHYCTGKSCDCPLYPG)
Collagen IV or FGF as chemoattractants, 0 to 500 nM
  migration of MV3 cells through the HUVEC layer: inhibited migration
Through HUVEC layer
  concentration giving essentially complete inhibition of MV3 cell migration: above 200 nM
